Reference: US7700622B2, “p-38 kinase inhibitors” (Novartis AG, priority 2003, dated 2010)

What follows are compounds tested against T1, p38α kinase (Homo sapiens, UniProt Q16539) (assay: p38α assay (coupled ADP/NADH oxidation kinase assay)). Conditions: 60 min preincubation with p38α, 0.15 mM ATP, 37° C.; read-out: Activity (p-38) IC50.
T1 construct: purchased Upstate
Type: biochemical
Design: scale not given here
Experimental: cDNAs of human p38α and β were cloned by PCR. The α and β cDNAs were subcloned into DEST2 plasmid (Gateway, InVitrogen). His6-p38 fusion protein was expressed in E. coli and purified from bacterial lysates by affinity chromatography using Ni^+2-NTA-agarose. His6-p38 protein was activated by incubating with constitutively active MKK6. Active p38 was separated from MKK6 by affinity chromatography. Constitutively active MKK6 was generated in a manner similar to Raingeaud et al. [Mol. Cell.
The p38α assay employed is based on measurement of ADP released in the reaction of interest through NADH oxidation obtained by coupling with pyruvate kinase and lactate dehydrogenase reactions. The assays were performed in 384-well UV-plates. The final volume was 25 uL prepared from the addition of 2.5 uL compound dissolved in 10% DMSO, 17.5 uL of assay buffer and 5 uL of ATP. […] Test compounds are preincubated with p38α for 60 min and the reaction started by addition of ATP to 0.15 mM final concentration. Reaction rates were measured at 340 nm using SpectraMax plate-reading spectrophotometer for 10 min at 37° C. Inhibition data were analyzed by non-linear least squares regression using SigmaPlot.

T1 sequence (Q16539 whole entry): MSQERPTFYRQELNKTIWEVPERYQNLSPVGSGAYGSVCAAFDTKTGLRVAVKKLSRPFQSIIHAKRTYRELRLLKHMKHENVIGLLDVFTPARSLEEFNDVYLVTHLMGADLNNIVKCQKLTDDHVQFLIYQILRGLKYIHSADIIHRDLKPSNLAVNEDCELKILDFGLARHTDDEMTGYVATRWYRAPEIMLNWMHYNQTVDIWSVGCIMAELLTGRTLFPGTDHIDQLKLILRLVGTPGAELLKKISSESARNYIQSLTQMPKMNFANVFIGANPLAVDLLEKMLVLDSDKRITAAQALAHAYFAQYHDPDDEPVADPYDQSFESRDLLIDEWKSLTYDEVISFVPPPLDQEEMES

| SMILES | IC50 [µM] |
| --- | --- |
| Cc1ccc(C(=O)NC2CC2)cc1-c1ccc(-c2nnco2)cc1 [Example 1, 6-Methyl4′-[1,3,4]oxadiazol-2-yl-biphenyl-3-carboxylic acid cyclopropylamide] | < 1 |
| Cc1ccc(C(=O)NC2CC2)cc1-c1ccc(-c2nnc[nH]2)cc1 [Example 3, 6-Methyl4′-(4H-[1,2,4]triazol-3-yl)-biphenyl-3-carboxylic acid cyclopropylamide] | < 1 |
| Cc1ccc(C(=O)NC2CC2)cc1-c1ccc(-c2nnco2)cn1 [Example 4, N-Cyclopropyl-4-methyl-3-(5-[1,3,4]oxadiazol-2-yl-pyridin-2-yl)-benzamide] | < 1 |
| Cc1nnc(-c2ccc(-c3cc(C(=O)NC4CC4)ccc3C)nc2)o1 [Example 5, N-Cyclopropyl-4-methyl-3-[5-(5-methyl-[1,3,4]oxadiazol-2-yl)-pyridin-2-yl]-benzamide] | < 1 |
| Cc1ccc(C(=O)NC2CC2)cc1-c1ccc2c(=O)n(Cc3ccccc3)cnc2c1 [Example 6, 3-(3-Benzyl-4-oxo-3,4-dihydro-quinazolin-7-yl)-N-cyclopropyl-4-methyl-benzamide] | < 1 |
| Cc1ccc(C(=O)NC2CC2)cc1-c1ccc2c(=O)n(Cc3c(Cl)cccc3Cl)cnc2c1 [Example 7, N-Cyclopropyl-3-[3-(2,6-dichloro-benzyl)-4-oxo-3,4-dihydro-quinazolin-7-yl]-4-methyl-benzamide] | < 1 |
| Cc1ccc(C(=O)NC2CC2)cc1-c1ccc2c(=O)n(Cc3ccc(Cl)c(Cl)c3)cnc2c1 [Example 8, N-Cyclopropyl-3-[3-(3,4-dichloro-benzyl)-4-oxo-3,4-dihydro-quinazolin-7-yl]-4-methyl-benzamide] | < 1 |

The next lines start with the values.

| IC50 [µM] | SMILES |
| --- | --- |
| < 1 | COc1ccc(Cn2cnc3cc(-c4cc(C(=O)NC5CC5)ccc4C)ccc3c2=O)cc1 [Example 9, N-Cyclopropyl-3-[3-(4-methoxy-benzyl)-4-oxo-3,4-dihydro-quinazolin-7-yl]-4-methyl-benzamide] |
| < 1 | Cc1ccc(C(=O)NC2CC2)cc1-c1ccc2c(=O)[nH]cnc2c1 [Example 10, N-Cyclopropyl-4-methyl-3-(4-oxo-3,4-dihydro-quinazolin-7-yl)-benzamide] |
| < 1 | Cc1ccc(C(=O)NC2CC2)cc1-c1ccc(C(=O)c2ccccc2)cc1 [Example 11, 4′-Benzoyl-6-methyl-biphenyl-3-carboxylic acid cyclopropylamide] |
| < 1 | COc1ccc(CNC(=O)c2ccc(-c3cc(C(=O)NC4CC4)ccc3C)nc2)cc1 [Example 12, 6-(5-Cyclopropylcarbamoyl-2-methyl-phenyl)-N-(4-methoxy-benzyl)-nicotinamide] |
| < 1 | COc1ccc(CNC(=O)c2cnc(-c3cc(C(=O)NC4CC4)ccc3C)nc2N)cc1 [Example 13, N-(4-Methoxybenzyl)-2-[(5-cyclopropylaminocarbonyl)-2-methylphenyl]-4-aminopyrimidine-5-carboxyamide] |
| < 1 | Cc1ccc(C(=O)NC2CC2)cc1-c1ccc(C(=O)c2ccccc2)c(N)c1 [Example 14, 3′-Amino-4′-benzoyl-6-methyl-biphenyl-3-carboxylic acid cyclopropylamide] |
| < 1 | Cc1ccc(C(=O)NC2CC2)cc1-c1ccc2c(-c3ccccc3)nc(=O)[nH]c2c1 [Example 15, N-Cyclopropyl-4-methyl-3-(2-oxo-4-phenyl-1,2-dihydro-quinazolin-7-yl)-benzamide] |
| < 1 | Cc1ccc(C(=O)NC2CC2)cc1-c1ccc2c(-c3ccccc3)ncnc2c1 [Example 16, N-Cyclopropyl-4-methyl-3-(4-phenyl-quinazolin-7-yl)-benzamide] |
| < 1 | CC(=O)Nc1cc(-c2cc(C(=O)NC3CC3)ccc2C)ccc1C(=O)c1ccccc1 [Example 17, 3′-Acetylamino4′-benzoyl-6-methyl-biphenyl-3-carboxylic acid cyclopropylamide] |
